Laboratory results reported in patent publication US7053090B2, “Triazaspiro[5.5]undecane derivatives and drugs containing the same as the active ingredient” (Ono Pharmaceutical Co., Ltd., priority 2001, dated 2006).
Structures can show the parent of a compound that is named as a salt.

Target: T1, human CCR5 (Homo sapiens, UniProt P51681)
T1 construct: expressed in transfected cells; host or cells: CHO-dhfr(-) cells stably transfected with pEF-BOS-bsr/hCCR5
Test: Inhibition test on the binding of RANTES to CCR5 (RANTES-induced transient increase of Ca ion)
Type: cell-based
Conditions: human CCR5 stably over-expressing CHO cell; recombinant human RANTES 10 nM; intracellular Ca2+ transient increase
Description: (1) Isolation of Human CCR5 Gene
Human placental cDNA was prepared using Marathon cDNA amplification kit (Clontech). PCR primers hCCR5Xbal-F1: 5′-[…]-3′ (SEQ ID NO:1) and hCCR5Xbal-R1: 5′-[…]-3′ (SEQ ID NO:2) were designed based on the sequence of GenBank U54994.
Using the human placental cDNA as the template and using Ex Taq (Takara), PCR reaction (2 minutes at 95° C.→(30 seconds at 95° C., 45 seconds at 60° C., 1 minute at 72° C.)×35 times) was carried out. The thus amplified PCR product was subjected to a 1% agarose gel electrophoresis, purified using QIAquick Gel Extraction Kit (QUIAGEN) and then digested with a restriction enzyme Xbal. The digested fragments were ligated to an expression vector pEF-BOS-bsr using DNA Ligation Kit Ver. […]
The thus established human CCR5 stably over-expressing CHO cell (CCR5/CHO cell) was suspended in Ham's F-12 medium containing FBS (10%) and dispensed in […] portions into a 96 well plate. […] Transient increase in the intracellular Ca^2+ concentration induced by the human RANTES was measured using a Ca^2+ detector for 96 well use (Hamamatsu Photonics), and inhibition ratio (%) of the test compound was calculated by the following calculation formula. Inhibition ratio=(Ec−Ea)/Ec×100 • Ec: measured value of Ca^2+ transient increase by RANTES • Ea: measured value of Ca^2+ transient increase by RANTES when a test compound was added.

T1 sequence (P51681 whole entry): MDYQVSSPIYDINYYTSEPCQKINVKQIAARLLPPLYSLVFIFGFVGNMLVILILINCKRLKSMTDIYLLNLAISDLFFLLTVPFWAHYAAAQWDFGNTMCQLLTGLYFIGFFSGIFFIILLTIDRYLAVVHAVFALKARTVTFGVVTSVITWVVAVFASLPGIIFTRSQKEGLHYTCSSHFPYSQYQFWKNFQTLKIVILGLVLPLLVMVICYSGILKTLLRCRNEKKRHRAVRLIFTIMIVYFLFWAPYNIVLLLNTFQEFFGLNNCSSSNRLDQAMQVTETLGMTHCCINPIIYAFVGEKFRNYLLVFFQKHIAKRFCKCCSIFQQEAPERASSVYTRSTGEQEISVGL

Compound: CCCCN1C(=O)[C@@H]([C@H](O)C(C)C)NC(=O)C12CCN(Cc1ccc(Oc3ccccc3)nc1)CC2 [Example 2, (3R)-1-butyl-2,5-dioxo-3-((1R)-1-hydroxy-2-methylpropyl)-9-(6-phenyloxypyridin-3-ylmethyl)-1,4,9-triazaspiro[5.5]undecane.2hydrochloride]
- IC50: 27 nM

Compound: CCCCN1C(=O)[C@H]([C@@H](O)C(C)C)NC(=O)C12CCN(Cc1ccc(Oc3ccccc3)nc1)CC2 [Example 3, (3S)-1-butyl-2,5-dioxo-3-((1S)-1-hydroxy-2-methylpropyl)-9-(6-phenyloxypyridin-3-ylmethyl)-1,4,9-triazaspiro[5.5]undecane.2hydrochloride]
- IC50: 370 nM
